Patent US20220062205A1, “TREATMENT OF GASTROINTESTINAL DISORDERS AND SYMPTOMS THEREOF” (Indiana University Research and Technology Corporation, priority 2018, published 2022)

Key:
Type in all cases: in vivo, mouse
Winnie mice [1] = assay: Immunohistochemistry and histology of distal colon (cross sections and LMMP)
Procedure: The small molecular APE1/Ref-1 antagonist; APX3330, was administered via IP injections in Winnie mice at a dose of 25 mg/kg (30 G needle, max volume 200 μl) dissolved in Cremphore (2%) (Sigma-Aldrich): Ethanol (2%) in sterile water (96%). Mice received alternating IP injections twice a day with 12-hour intervals, over the course of two weeks during predominate intestinal inflammation. Winnie-sham treated mice received vehicle injections excluding APX3330 drugs. All mice were monitored, weighed and faecal pellets were collected over the course of treatment.
Distal colon tissues were harvested in oxygenated physiological saline, flushed of faecal content and cut along the mesenteric border. Tissues were pinned down with mucosal side upwards in a Slygard-lined petri dish and were briefly fixed with Zamboni's fixative (2% formaldehyde containing 0.2% picric acid) over night at 4° C. Zamboni's fixative was removed by a serial of washes (3×10 minutes) with dimethyl sulfoxide (DMSO) (Sigma-Aldrich, Sydney, Australia) followed by (3×10 minutes) with 1× phosphate buffered solution (PBS). Tissues were processed for cross sections wholemount longitudinal muscle-myenteric preparations (LMMP). For histological staining, β-tubulin III and α-Smooth muscle actin (SMA) labelling distal colon tissues were pinned and fixed as above without stretching and stored in 50:50 optimum cutting temperature (OCT) compound (Tissue Tek, CA, USA) and frozen in liquid nitrogen-cooled isopentane and OCT and stored at −80° C. until cryo-sectioned (20 μm) onto glass slides for immunohistochemistry (IHC). For immunolabeling glial fibrillary acidic protein (GFAP), microtubule associated protein-2 (MAP2), HMGB1 and APE1, the distal colon LMMPs were stretched to maximum capacity without tearing in Slygard-lined petri dishes and were subjected to fixation and washes as above. To expose the myenteric plexus, removal of mucosa, submucosa and circular muscle was performed prior to IHC.
Immunohistochemistry (IHC) was completed. Specimens were subjected to a one hour incubation at room temperature with 10% normalised donkey serum (NDS) (Merck Millipore, Australia) prior to labelling with primary antibodies (Table 2) in distal colon cross sections and LMMPs. Sections and preparation were washed with 1×PBS (3×10 minutes) and then briefly incubated with fluorophore-conjugated secondary antibodies (Table 2). All specimens were stained with 4′,6′-diamindino-2-pheylindole dihydrochloride (DAPI) to identify immunoreactive cells. Tissues were mounted on glass slides with fluorescent mounting medium (DAKO, North, Sydney, NSW, Australia Tissues for histology were cryo-sectioned at 10 μm, cleared and rehydrated in graded ethanol concentration. For standard hematoxylin and eosin stain (H&E) and Alcian blue stain, sections were immersed in histolene (3×4 minutes), 100% ethanol (2 minutes), 95% ethanol (2 minutes), 70% ethanol (2 minutes), rinsed in tap water (30 seconds), then in hematoxylin (Sigma-Aldrich) (1 minute) or Alcian blue (Sigma-Aldrich) (30 minutes), rinsed in tap water, immersed in Scott's tap water (1 minute) and eosin (Sigma-Aldrich) (5 minutes), rinsed in tap water, immersed in 100% ethanol (2×1 minute) and histolene (4 minutes) and finally mounted on glass slides with DPX mountant. A histological grading system evaluated gross morphological damage on constraints inclusive of mucosal flattening (0=normal, 3=severe flattening), manifestations of haemorrhagic sites (0=none, 3=frequent), damage or distortion to circular muscle (0=normal, 3=substantial thickening and disorganization of muscle layer) and loss to goblet cells (0=none, 3=depleted cells). All slides were coded, and analysis was performed blindly.
Confocal microscopy (Nikon Eclipse Ti multichannel confocal laser scanning system, Nikon, Japan) acquired immunolabelled sections. […]

Winnie mice [2] = assay: Gastrointestinal transit of barium sulfate by X-ray imaging; details: 25 mg/kg IP twice a day
Procedure: The small molecular APE1/Ref-1 antagonist; APX3330, was administered via IP injections in Winnie mice at a dose of 25 mg/kg (30 G needle, max volume 200 μl) dissolved in Cremphore (2%) (Sigma-Aldrich): Ethanol (2%) in sterile water (96%). Mice received alternating IP injections twice a day with 12-hour intervals, over the course of two weeks during predominate intestinal inflammation. Winnie-sham treated mice received vehicle injections excluding APX3330 drugs. All mice were monitored, weighed and faecal pellets were collected over the course of treatment. GI transit was acquired via a non-invasive radiological method. Briefly, control C57BL/6, Winnie-sham treated and Winnie-APX3330 treated mice received an administration of barium sulfate (2.5 mg/mL; max volume of 200 μl; X-OPAQUE-HD) via oral gavage. Sequential x-rays were attained by HiRay Plus Porta610HF x-ray apparatus (JOC Corp, Kanagawa, Japan; 50 kV, 0.3 mAs, exposure time 60 ms) immediately post Barium sulfate administration (0 min), every 5 minutes for the first hour, 10 minutes for the second hour and then every 20 minutes through to 250 minutes. Fujifilm FCR Capsule XL11 and analysed on eFilm 4.2.0 software developed images. Parameters of GI transit were measured by time (mins) to determine contrast passing through whole GI tract (whole transit time), stomach to caecum (oro-cecal transit time; OCTT), leaving caecum to anus (colonic transit time; CTT) and caecum retention time.

Winnie mice [3] = assay: RNA sequencing of pooled distal colon; details: n=6, relative to control C57BL/6 mice
Procedure: The small molecular APE1/Ref-1 antagonist; APX3330, was administered via IP injections in Winnie mice at a dose of 25 mg/kg (30 G needle, max volume 200 μl) dissolved in Cremphore (2%) (Sigma-Aldrich): Ethanol (2%) in sterile water (96%). Mice received alternating IP injections twice a day with 12-hour intervals, over the course of two weeks during predominate intestinal inflammation. Winnie-sham treated mice received vehicle injections excluding APX3330 drugs. All mice were monitored, weighed and faecal pellets were collected over the course of treatment. Control C57BL/6, Winnie-sham treated and Winnie-APX3330 fresh colon tissues were collected and snap frozen into liquid nitrogen. Samples were then sent to the Australian Genome Research Facility (AGRF) where next generation sequencing (NGS) was completed. NGS will be carried out by removing 2-3 μg of RNA per sample (≥100 ng/μl). The integrity of the RNA will be assessed by a Bioanalyzer as samples are to have a RNA integrity number (RIN) value of ≥8.0. The RNA samples went through a DNase treatment ready for library preparation. […] Samples underwent quality and adapter trimming, alignment, quantification and normalization. […] Final data obtained from AGRF were analysed and interpreted to determine APE1/Ref-1 associated pathways.

[4] = LMMP distal colon, mean±SEM, n=6
[5] = distal colon cross sections, mean±SEM, n=5

Structure (SMILES): CCCCCCCCCC(=CC1=C(C)C(=O)C(OC)=C(OC)C1=O)C(=O)O [APX3330]
- goblet cell density (Winnie mice [1]; Alcian blue, distal colon mucosa, mean±SEM, n=4): 46.5±4.3%
- histological grading (Winnie mice [1]; H&E / Alcian blue colon cross sections, mean±SEM, n=5): 4.8±0.7
- APE1 intensity (immunoreactivity density) in the myenteric ganglia (Winnie mice [1]; LMMP colon, mean±SEM, n=4): 6.0±1.4%
- expression of Oxo-8dG-IR (oxidative DNA damage) in myenteric ganglia (Winnie mice [1]; [4]): 2.0±0.9%
- number of myenteric neurons IR for Oxo-8dG (Winnie mice [1]; [4]): 0.9±0.7
- number of APE1-IR cells (Winnie mice [1]; LMMP, compared to control C57BL/6 and Winnie-sham (P<0.01)): significantly decreased
- gross morphology of the colon (H&E stain) (Winnie mice [1]; colon cross sections of treated Winnie mice): attenuate damage to the colon
- size of α-SMA-immunoreactive smooth muscle cells to nuclear size (Winnie mice [1]; distal colon cross sections, circular muscle, mean±SEM, n=5): 75.7±6.4%
- number of α-SMA-IR smooth muscle cells within the circular muscle (Winnie mice [1]; [5]): 45.2±3.1
- β-tubulin (III)-IR nerve fibre density (Winnie mice [1]; [5]): 13.3±0.8
- proportional number of MAP2-IR myenteric neurons (Winnie mice [1]; myenteric ganglia, LMMP distal colon, mean±SEM, n=7): 31.9±2.2%
- number of cells with HMGB1 translocation into the cytosol (Winnie mice [1]; myenteric ganglia, LMMP, mean±SEM, n=4): 0.9±0.3
- GFAP-IR glial cell density relative to ganglion area (Winnie mice [1]; myenteric plexus, LMMP distal colon, mean±SEM, n=4): 64.2±8.8%
- retention time in the cecum (Winnie mice [2]; Winnie mice, mean±SEM): 86.4 ± 17.8 min
- total transit time (Winnie mice [2]; Winnie mice, mean±SEM): 173.3 ± 24.6 min
- oro-caecal transit time (OCTT) (Winnie mice [2]; between experimental groups, Winnie mice): No changes
- colonic transit time (CTT) (Winnie mice [2]; compared to Winnie-sham treated mice): improved
- down regulation (fold change) of RNA expression of S100a8, Khdc1a, Lrg1, Retnlb, Nos2, Ido1 and REG3B (Winnie mice [3]): > 2
